This is an account of results in the NIST ThermoML archive (doi:10.1021/je100022w).

± gives the expanded uncertainty stated by the source.

For this data set the following is noted: Crystal 2; DSC.

With `COC(=O)[C@H](c1ccccc1Cl)N1CCc2sccc2C1.O=S(=O)(O)O` [(S)-(+)-Clopidogrel hydrogen sulfate], the Triple point temperature amounted to 449.15 ± 1 K.
